Read-outs that look alike come from different tables or passages of the source.
What was measured:
MM.1S cells [1] = assay: Annexin V-FITC/PI apoptosis assay, flow cytometry; assay type: cell-based; settings: 10 μM, 48 h
Procedure: The percentage of cells that were annexin V‐positive but PI‐negative was considered as early apoptotic, whereas the percentage of cells that were both annexin V‐ and PI‐positive was considered as late apoptotic. Data are presented as mean ± standard deviation (n = 2 biological replicates, each performed in duplicates). Statistical analysis was performed by using one‐way ANOVA in GraphPad Prism 8. Statistical significance was indicated with asterisks (****p ≤ 0.0001).
MM.1S cells (3 × 10^5 cells/well) were seeded in 24‐well plates and treated with the indicated concentration of compound or DMSO for 48 h under cell culture conditions. Subsequently, cells were washed with cell staining buffer (HEPES 0.1 M, NaCl 1.4 M, CaCl2·3H2O 25 mM), resuspended in 300 µL, and 150 µL was transferred in a 96‐well plate.

HDAC3 = target: T1, HDAC3 (Homo sapiens, UniProt O15379); assay: HDAC3 degradation, western blot in MM.1S cells; assay type: cell-based; settings: MM.1S cells, 1, 10, 25 μM
T1 construct: endogenous in cells; host or cells: MM.1S
Procedure: (§1) Subsequently, degrader 10a was investigated at various concentrations (1, 10, and 25 µM) for degradation effects on different HDAC isoforms, including HDAC2, HDAC3, and HDAC4. […] In detail, 10a induced a modest degradation of HDAC2 (D max = 46% at 25 μM), which may be attributed to the high structural similarity between HDAC1 and HDAC2, particularly in their catalytic domains.
(§2) The MM.1S was obtained from ATCC (Manassas, VA, USA). MM.1S cells were cultivated in RPMI 1640 medium supplemented with 10% FBS, 100 IU/mL penicillin, 0.1 mg/mL streptomycin, and 1 mM sodium pyruvate at 37°C in a 5% CO2 atmosphere.
(§3) The MM.1S cells (3 × 10^6 cells/mL) were seeded into cell culture flasks and, after 72 h, treated with the indicated concentration of compound or DMSO for the given time. Cell lysis was performed with Cell Extraction Buffer and the addition of Halt Protease Inhibitor Cocktail and phenylmethanesulfonyl fluoride. Protein content was determined by Pierce BCA Protein Assay Kit. Samples were denatured by Laemmli 2× Concentrate, and Precision Plus Protein Unstained Standard was used as a molecular weight marker in all cases. […] The ChemiDoc XRS+ System was used for detection, and Image Lab Software 6.1 (Bio‐Rad, Hercules, CA, USA) for quantification.

[2] = system: acetylated histone H3 (indicator of reduced HDAC1‐3 activity); assay: Cellular target engagement: immunoblot of acetylated histone H3; assay type: cell-based; settings: MM.1S cells, 10 µM, 24 h
Procedure: (§4) Immunoblot analysis of acetylated histone H3 (A) and α‐tubulin (B) in MM.1S cell lysates after treatment with the indicated compounds (10 µM) or vehicle (DMSO) for 24 h. Representative images from a total of n = 2 replicates.
(§5) The MM.1S cells (3 × 10^6 cells/mL) were seeded into cell culture flasks and, after 72 h, treated with the indicated concentration of compound or DMSO for the given time. Cell lysis was performed with Cell Extraction Buffer and the addition of Halt Protease Inhibitor Cocktail and phenylmethanesulfonyl fluoride. Protein content was determined by Pierce BCA Protein Assay Kit. Samples were denatured by Laemmli 2× Concentrate, and Precision Plus Protein Unstained Standard was used as a molecular weight marker in all cases. SDS‐PAGE was performed with 10% Mini‐PROTEAN TGX Stain‐Free Gel (Catalog# 458035, Bio‐Rad, Hercules, CA, USA) at 200 V for 50 min (Catalog# 458035, Bio‐Rad). Afterwards, proteins were transferred with the Trans‐Blot Turbo Transfer System to Immobilon‐FL PVDF membranes at 1.0 A for 30 min and incubated with 5% milk‐powder solution for 1 h at room temperature under slight agitation. Subsequently, the membranes were incubated with anti‐HDAC1 (Catalog# 5356S, Cell Signaling Technology, Denver, MA, USA), anti‐HDAC2 (Catalog# 9959S, Cell Signaling Technology, Denver, MA, USA), anti‐HDAC3 (Catalog# 85057S, Cell Signaling Technology, Denver, MA, USA), anti‐HDAC4 (Catalog# 7628S, Cell Signaling Technology, Denver, MA, USA), anti‐HDAC6 (Catalog# 7558S, Cell Signaling Technology, Denver, MA, USA), anti‐acetyl‐histone H3 (Catalog# 9677S, Cell Signaling Technology, Denver, MA, USA), anti‐acetyl‐α‐tubulin (Catalog# 5335, Cell Signaling Technology, Denver, MA, USA), or anti‐GAPDH (Catalog# T0004, Affinity Biosciences, Cincinnati, OH, USA) antibody solutions in 1:1000–1:20000 dilutions at room temperature under slight agitation for 1 h, then put membranes at 4°C for overnight. […] The ChemiDoc XRS+ System was used for detection, and Image Lab Software 6.1 (Bio‐Rad, Hercules, CA, USA) for quantification.

HDAC2 [3] = target: T2, HDAC2 (Homo sapiens, UniProt Q92769); assay: HDAC enzyme inhibition assay (ZMAL substrate), HDAC2; assay type: biochemical; design: purchased BPS Bioscience 50052; settings: n = 2, mean ± SD
Procedure: (§6) The total assay volume of 50 μL (HDAC2/3/6 max. 1% DMSO; HDAC1 max. 5% DMSO) was incubated at 37°C for 90 min. Subsequently, 50 μL of trypsin (0.4 mg/mL) in trypsin buffer (50 mM Tris−HCl, pH 8.0, 100 mM NaCl) was added, followed by an additional 30 min of incubation at 37°C. Fluorescence (excitation λ = 355 nm, emission λ = 460 nm) was measured using a FLUOstar OPTIMA microplate reader. The IC50 was determined by plotting dose–response curves and performing nonlinear regression using GraphPad Prism.
(§7) The total assay volume of 50 μL (HDAC2/3/6 max. 1% DMSO; HDAC1 max. 5% DMSO) was incubated at 37°C for 90 min. Subsequently, 50 μL of trypsin (0.4 mg/mL) in trypsin buffer (50 mM Tris−HCl, pH 8.0, 100 mM NaCl) was added, followed by additional 30 min of incubation at 37°C. Fluorescence (excitation λ = 355 nm, emission λ = 460 nm) was measured using a FLUOstar OPTIMA microplate reader. The IC50 was determined by plotting dose response curves and performing nonlinear regression using GraphPad Prism.^[3-6]

[4] = target: T3, Human recombinant HDAC3/NcoR2 (Homo sapiens, UniProt O15379); assay: HDAC enzyme inhibition assay (ZMAL substrate), HDAC3; assay type: biochemical; settings: n = 2, mean ± SD
T3 construct: purchased BPS Bioscience 50003
Procedure: as §6, §7

HDAC1 [5] = target: T4, HDAC1 (Homo sapiens, UniProt Q13547); assay: HDAC enzyme inhibition assay (ZMAL substrate), HDAC1; assay type: biochemical; design: purchased BPS Bioscience 50051; settings: n = 2, mean ± SD
Procedure: as §6, §7

Human recombinant HDAC6 = target: T5, Human recombinant HDAC6 (Homo sapiens, UniProt Q9UBN7); assay: HDAC enzyme inhibition assay (ZMAL substrate), HDAC6; assay type: biochemical; settings: n = 2, mean ± SD
T5 construct: purchased BPS Bioscience 50006
T5 sequence (Q9UBN7 1-1215): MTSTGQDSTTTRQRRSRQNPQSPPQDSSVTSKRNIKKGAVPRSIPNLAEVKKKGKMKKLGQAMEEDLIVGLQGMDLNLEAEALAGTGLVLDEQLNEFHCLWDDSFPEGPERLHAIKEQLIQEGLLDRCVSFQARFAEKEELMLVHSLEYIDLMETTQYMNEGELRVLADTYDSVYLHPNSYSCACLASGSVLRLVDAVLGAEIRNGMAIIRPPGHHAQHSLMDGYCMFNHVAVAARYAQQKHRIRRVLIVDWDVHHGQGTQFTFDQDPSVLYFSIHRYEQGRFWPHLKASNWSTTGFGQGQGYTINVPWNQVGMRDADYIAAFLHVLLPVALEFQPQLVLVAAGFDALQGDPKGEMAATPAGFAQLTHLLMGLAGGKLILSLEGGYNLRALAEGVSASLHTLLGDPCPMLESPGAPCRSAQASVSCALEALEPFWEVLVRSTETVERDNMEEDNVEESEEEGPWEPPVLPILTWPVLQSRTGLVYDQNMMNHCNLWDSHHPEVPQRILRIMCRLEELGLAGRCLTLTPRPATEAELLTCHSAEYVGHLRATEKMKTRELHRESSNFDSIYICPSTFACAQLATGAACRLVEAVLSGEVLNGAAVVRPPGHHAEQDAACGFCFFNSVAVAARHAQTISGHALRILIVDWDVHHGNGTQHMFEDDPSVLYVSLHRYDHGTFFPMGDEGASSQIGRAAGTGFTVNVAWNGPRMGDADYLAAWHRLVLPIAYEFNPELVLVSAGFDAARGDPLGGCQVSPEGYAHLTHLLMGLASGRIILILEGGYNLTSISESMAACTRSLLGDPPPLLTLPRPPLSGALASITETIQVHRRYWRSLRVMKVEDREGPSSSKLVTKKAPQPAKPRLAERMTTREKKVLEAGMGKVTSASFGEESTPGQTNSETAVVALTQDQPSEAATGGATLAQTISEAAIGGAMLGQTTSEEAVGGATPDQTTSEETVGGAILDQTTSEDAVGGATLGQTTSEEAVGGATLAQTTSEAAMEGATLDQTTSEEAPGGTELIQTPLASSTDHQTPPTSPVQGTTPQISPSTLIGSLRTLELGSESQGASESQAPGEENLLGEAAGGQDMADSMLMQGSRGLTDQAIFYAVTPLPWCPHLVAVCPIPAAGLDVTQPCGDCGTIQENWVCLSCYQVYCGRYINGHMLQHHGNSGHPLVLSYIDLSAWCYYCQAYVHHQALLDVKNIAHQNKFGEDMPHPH
Procedure: as §6, §7

HDAC2 [6] = target: T2, HDAC2; assay: HDAC2 degradation, western blot in MM.1S cells; assay type: cell-based; design: endogenous in cells; host or cells: MM.1S
Procedure: as §1, §2
(§8) The MM.1S cells (3 × 10^6 cells/mL) were seeded into cell culture flasks and, after 72 h, treated with the indicated concentration of compound or DMSO for the given time. Cell lysis was performed with Cell Extraction Buffer and the addition of Halt Protease Inhibitor Cocktail and phenylmethanesulfonyl fluoride. Protein content was determined by Pierce BCA Protein Assay Kit. Samples were denatured by Laemmli 2× Concentrate, and Precision Plus Protein Unstained Standard was used as a molecular weight marker in all cases. SDS‐PAGE was performed with 10% Mini‐PROTEAN TGX Stain‐Free Gel (Catalog# 458035, Bio‐Rad, Hercules, CA, USA) at 200 V for 50 min (Catalog# 458035, Bio‐Rad). Afterwards, proteins were transferred with the Trans‐Blot Turbo Transfer System to Immobilon‐FL PVDF membranes at 1.0 A for 30 min and incubated with 5% milk‐powder solution for 1 h at room temperature under slight agitation. […] The ChemiDoc XRS+ System was used for detection, and Image Lab Software 6.1 (Bio‐Rad, Hercules, CA, USA) for quantification.

HDAC4 = target: T6, HDAC4 (Homo sapiens, UniProt P56524); assay: HDAC4 degradation, western blot in MM.1S cells; assay type: cell-based; settings: MM.1S cells, 1, 10, 25 μM
T6 construct: HDAC2, HDAC3, and HDAC4 levels were detected by immunoblot analysis; endogenous in cells; host or cells: MM.1S
Procedure: as §1, §2, §3

MM.1S cells [7] = assay: CellTiter-Glo cell viability assay; assay type: cell-based; settings: Homo sapiens, MM1.S, 72 h, read-out: IC50 cell viability
Procedure: The MM.1S was obtained from ATCC (Manassas, VA, USA).
For this purpose, the dilution series was prepared at 200× concentration in DMSO and then further diluted to 10× concentration in medium. The final DMSO concentration was 0.5%. The toxicity of compounds was assessed after 72 h using the CellTiter‐Glo 2.0 cell viability assay. Luminescence was then measured, and the IC50 was determined by plotting dose–response curves and performing nonlinear regression using GraphPad Prism.
For this purpose, the dilution series were prepared at 200× concentration in DMSO and then further diluted to 10× concentration in medium. The final DMSO concentration was 0.5%. The toxicity of compounds was assessed after 72 h using the CellTiter-Glo 2.0 cell viability assay. Luminescence was then measured, and the IC50 was determined by plotting dose-response curves and performing nonlinear regression using GraphPad Prism.^[1]

[8] = system: acetylated α‐tubulin (marker of decreased HDAC6 activity); assay: Cellular target engagement: immunoblot of acetylated α-tubulin; assay type: cell-based; settings: MM.1S cells, 10 µM, 24 h
Procedure: as §4, §5

HDAC1 [9] = target: T4, HDAC1; assay: HDAC1 degradation, western blot in MM.1S cells; assay type: cell-based; design: endogenous in cells; host or cells: MM.1S; settings: 24 h
Procedure: First, the multiple myeloma cell line MM.1S was treated with varying concentrations (1, 10, and 25 µM) of degraders 10a–d for 6 and 24 h, respectively. HDAC1 and HDAC6 were selected for investigation due to their critical roles in various diseases such as cancer. HDAC1 and HDAC6 protein levels were subsequently evaluated using western blot analysis. […] This limited efficacy could be due to insufficient incubation time of the compounds with MM.1S cells. […] All compounds still exerted no degradation of HDAC6 at different concentrations after 24 h of treatment. However, different from 10b–d, degrader 10a, which contains a hydroxamic acid as ZBG, achieved substantial degradation of HDAC1 with a maximal degradation (D max) value of 74% at 25 μM. Consequently, Compound 10a was selected for further biological evaluations based on the initial screening results.
as §2, §8

T4 sequence (Q13547 whole entry): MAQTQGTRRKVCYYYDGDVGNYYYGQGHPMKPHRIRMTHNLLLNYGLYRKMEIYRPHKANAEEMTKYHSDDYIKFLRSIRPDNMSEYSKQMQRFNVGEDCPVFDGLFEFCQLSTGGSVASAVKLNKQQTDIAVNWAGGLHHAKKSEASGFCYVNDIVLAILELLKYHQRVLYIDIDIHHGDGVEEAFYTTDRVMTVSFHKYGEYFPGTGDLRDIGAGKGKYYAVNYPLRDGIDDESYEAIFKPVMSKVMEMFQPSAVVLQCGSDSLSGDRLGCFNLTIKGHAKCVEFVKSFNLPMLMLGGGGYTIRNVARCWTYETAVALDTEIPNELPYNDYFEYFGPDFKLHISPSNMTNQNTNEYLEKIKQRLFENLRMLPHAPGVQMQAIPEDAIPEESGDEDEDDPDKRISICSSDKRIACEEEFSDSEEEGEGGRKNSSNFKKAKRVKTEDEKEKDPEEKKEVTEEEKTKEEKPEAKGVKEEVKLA
T2 sequence (Q92769 whole entry): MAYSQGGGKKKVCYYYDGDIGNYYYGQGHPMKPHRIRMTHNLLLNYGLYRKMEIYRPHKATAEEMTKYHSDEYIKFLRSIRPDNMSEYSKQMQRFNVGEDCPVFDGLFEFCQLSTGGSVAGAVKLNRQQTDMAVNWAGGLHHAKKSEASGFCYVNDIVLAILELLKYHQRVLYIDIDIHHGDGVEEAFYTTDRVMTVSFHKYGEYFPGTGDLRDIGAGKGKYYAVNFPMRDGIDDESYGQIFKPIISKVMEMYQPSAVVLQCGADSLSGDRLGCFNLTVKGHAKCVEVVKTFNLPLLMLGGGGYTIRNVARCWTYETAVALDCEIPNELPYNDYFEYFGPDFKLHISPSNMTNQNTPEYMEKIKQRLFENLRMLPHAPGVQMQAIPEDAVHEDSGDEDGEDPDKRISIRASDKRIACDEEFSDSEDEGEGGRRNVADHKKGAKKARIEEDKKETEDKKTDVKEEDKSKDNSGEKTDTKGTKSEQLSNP
T6 sequence (P56524 whole entry): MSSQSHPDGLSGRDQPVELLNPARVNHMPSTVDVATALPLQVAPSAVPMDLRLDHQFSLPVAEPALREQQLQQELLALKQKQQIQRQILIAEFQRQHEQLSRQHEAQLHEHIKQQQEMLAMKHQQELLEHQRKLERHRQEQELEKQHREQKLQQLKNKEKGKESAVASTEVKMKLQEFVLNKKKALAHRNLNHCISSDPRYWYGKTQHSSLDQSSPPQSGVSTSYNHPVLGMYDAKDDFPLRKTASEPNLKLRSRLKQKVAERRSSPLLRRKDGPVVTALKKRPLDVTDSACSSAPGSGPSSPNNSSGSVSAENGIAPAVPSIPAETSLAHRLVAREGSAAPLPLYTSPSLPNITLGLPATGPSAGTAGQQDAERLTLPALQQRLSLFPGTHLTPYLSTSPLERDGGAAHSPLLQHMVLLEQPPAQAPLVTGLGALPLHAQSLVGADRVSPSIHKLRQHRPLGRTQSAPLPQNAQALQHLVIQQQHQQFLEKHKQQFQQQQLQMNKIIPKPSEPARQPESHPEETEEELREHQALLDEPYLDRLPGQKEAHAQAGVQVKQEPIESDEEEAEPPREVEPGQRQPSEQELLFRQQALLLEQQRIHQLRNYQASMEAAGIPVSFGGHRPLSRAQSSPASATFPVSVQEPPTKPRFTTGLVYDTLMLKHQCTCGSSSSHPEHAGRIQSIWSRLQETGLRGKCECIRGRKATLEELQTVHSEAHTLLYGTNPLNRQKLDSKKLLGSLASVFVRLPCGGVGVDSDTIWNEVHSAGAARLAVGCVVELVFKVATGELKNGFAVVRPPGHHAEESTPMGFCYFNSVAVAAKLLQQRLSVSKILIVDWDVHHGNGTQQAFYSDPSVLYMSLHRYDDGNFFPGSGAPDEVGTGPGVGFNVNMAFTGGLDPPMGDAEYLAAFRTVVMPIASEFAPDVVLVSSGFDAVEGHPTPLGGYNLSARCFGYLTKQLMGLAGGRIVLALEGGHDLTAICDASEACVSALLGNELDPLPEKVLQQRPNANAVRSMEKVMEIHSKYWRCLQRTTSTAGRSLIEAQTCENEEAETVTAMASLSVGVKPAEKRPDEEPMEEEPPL
T1 sequence (O15379 whole entry): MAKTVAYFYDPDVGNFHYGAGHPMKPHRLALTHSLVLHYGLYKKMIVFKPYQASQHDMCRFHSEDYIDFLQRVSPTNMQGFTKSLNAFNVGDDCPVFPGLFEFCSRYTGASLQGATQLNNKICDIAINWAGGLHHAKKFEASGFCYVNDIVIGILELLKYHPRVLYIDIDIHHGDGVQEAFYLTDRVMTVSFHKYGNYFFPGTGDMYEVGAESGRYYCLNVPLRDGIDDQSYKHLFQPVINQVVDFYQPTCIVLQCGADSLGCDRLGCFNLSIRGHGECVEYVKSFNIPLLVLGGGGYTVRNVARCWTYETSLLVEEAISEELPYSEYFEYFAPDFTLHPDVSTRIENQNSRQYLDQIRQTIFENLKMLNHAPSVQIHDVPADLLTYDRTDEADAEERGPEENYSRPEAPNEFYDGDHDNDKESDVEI
T3 sequence (O15379 whole entry): as above
T3 sequence (Q9Y618 395-489 partner limits assumed): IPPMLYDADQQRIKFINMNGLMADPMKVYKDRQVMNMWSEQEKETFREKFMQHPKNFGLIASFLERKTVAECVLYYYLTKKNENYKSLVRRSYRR

SMILES: C=CS(=O)(=O)N1CCN(C(=O)Cc2ccc(NC(=O)CCCCCCC(=O)NO)cc2)CC1 [Compound 10a, N ^1‐Hydroxy‐N ^8‐(4‐{2‐oxo‐2‐[4‐(vinylsulfonyl)piperazin‐1‐yl]ethyl}phenyl)octanediamide]
- apoptosis induction: proportions of early and late apoptotic cells (MM.1S cells [1]): markedly increased
- HDAC3 degradation (HDAC3; 6 h): none of the used concentrations resulted in the degradation
- HDAC3 protein levels (HDAC3; 24 h): minimal impact
- effect on histone H3 acetylation compared with vorinostat [2]: markedly lower than that of vorinostat
- level of acetylated histone H3 [2]: pronounced upregulation
- IC50 (HDAC2 [3]): 88 ± 7 nM
- IC50 [4]: 51 ± 4 nM
- IC50 (HDAC1 [5]): 17 ± 1 nM
- IC50 (Human recombinant HDAC6): 27 ± 8 nM
- Dmax at 25 µM (HDAC2 [6]; MM1.S, MM.1S cells, 25 μM, 24 h, read-out: maximal degradation (Dmax) of HDAC2): 46%
- HDAC2 degradation (HDAC2 [6]; MM.1S cells, 1, 10, 25 μM, 6 h): none of the used concentrations resulted in the degradation
- HDAC2 protein levels (HDAC2 [6]; MM.1S cells, 1, 10, 25 μM, 24 h): slightly affected
- HDAC4 degradation (HDAC4; 6 h): none of the used concentrations resulted in the degradation
- HDAC4 protein levels (HDAC4; 24 h): minimal impact
- IC50 (MM.1S cells [7]; MM.1S cells, CellTiter-Glo, n = 3, mean ± SD): 6480 ± 1180 nM
- hyperacetylation of α-tubulin compared with vorinostat [8]: comparable to its parent inhibitor, vorinostat
- level of acetylated α-tubulin [8]: pronounced upregulation
- HDAC1 protein levels (HDAC1 [9]; 25 μM, immunoblot): induced a reduction of HDAC1 protein levels
- DC50 (HDAC1 [9]; 0.37 up to 30 μM, western blot, read-out: half-maximal degradation concentration (DC50) for HDAC1): 8800 ± 4400 nM
- Dmax at 25 µM (HDAC1 [9]; MM1.S, 25 μM, western blot, read-out: maximal degradation (Dmax) of HDAC1): 74%

SMILES: O=C(CCCCCCNC(=O)c1cnc(N(c2ccccc2)c2ccccc2)nc1)NO [Ricolinostat]
- IC50 (MM.1S cells [7]): 2590 ± 270 nM

SMILES: O=C(CCCCCCC(=O)Nc1ccccc1)NO [Vorinostat]
- IC50 (MM.1S cells [7]): 790 ± 130 nM
